Measurements from ChEMBL document CHEMBL1201862, “PubChem BioAssay data set” (2004).
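Protocol summary: plate cells (96-well), add compound at 5 concentrations, incubate 48 h, interpolate endpoints linearly. GI50 is the concentration that inhibits growth by half.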 Calls of active or inactive are those of the source. Cut-off read from the data, not from the text of the source: active = GI50 up to about 1.1 µM and inactive = higher.

Experiments:
Experiment in all cases: growth of human tumour cells (NCI), 48 h
[1] = system: 786-0
[2] = system: A498
[3] = system: A549
[4] = system: ACHN
[5] = system: CAKI-1
[6] = system: CCRF-CEM
[7] = system: COLO 205
[8] = system: DLD-1
[9] = system: DMS-114
[10] = system: DMS-273
[11] = system: HCT-116
[12] = system: HCT-15
[13] = system: HL-60
[14] = system: HOP-62
[15] = system: HOP-92
[16] = system: HT-29
[17] = system: IGROV-1
[18] = system: KM-20L2
[19] = system: KM12
[20] = system: LOX IMVI
[21] = system: LXFL 529
[22] = system: M14
[23] = system: M19-MEL
[24] = system: MOLT-4
[25] = system: Malme-3M
[26] = system: NCI-H226
[27] = system: NCI-H23
[28] = system: NCI-H460
[29] = system: NCI-H522
[30] = system: OVCAR-3
[31] = system: OVCAR-4
[32] = system: OVCAR-5
[33] = system: OVCAR-8
[34] = system: RPMI-8226
[35] = system: RXF 393
[36] = system: SF-268
[37] = system: SF-295
[38] = system: SF-539
[39] = system: SK-MEL-28
[40] = system: SK-MEL-2
[41] = system: SK-MEL-5
[42] = system: SK-OV-3
[43] = system: SN12C
[44] = system: SNB-19
[45] = system: SNB-75
[46] = system: SNB-78
[47] = system: SW-620
[48] = system: TK-10
[49] = system: U-251
[50] = system: UACC-257
[51] = system: UO-31
[52] = system: XF498
[53] = system: HOP-18
[54] = system: K562
[55] = system: UACC-62

Q: With `CC(C)C(Sc1nc(-c2ccccc2)c(-c2ccccc2)[nH]1)C(=O)NN` (stereo unspecified) as the compound, how does the GI50 [1] read?
A: The GI50 was > 100 µM (inactive).

Q: And the GI50 [2]?
A: Its GI50 is > 100 µM (inactive).

Q: And the GI50 [3]?
A: Its GI50 is > 100 µM (inactive).

Q: What about the GI50 [4] of the same compound?
A: The GI50 was > 100 µM (inactive).

Q: And the GI50 [5]?
A: Its GI50 is > 100 µM (inactive).

Q: And the GI50 [6]?
A: Its GI50 is 31.6 µM (inactive).

Q: And the GI50 [7]?
A: The GI50 was > 100 µM (inactive).

Q: And the GI50 [8]?
A: The GI50 was > 100 µM (inactive).

Q: And the GI50 [9]?
A: Its GI50 is 99.8 µM (inactive).

Q: And the GI50 [10]?
A: Its GI50 is > 100 µM (inactive).

Q: And the GI50 [11]?
A: The GI50 was > 100 µM (inactive).

Q: And the GI50 [12]?
A: The GI50 was > 100 µM.

Q: What about the GI50 [13] of the same compound?
A: The GI50 was 31.6 µM (inactive).

Q: What about the GI50 [14] of the same compound?
A: The GI50 was > 100 µM (inactive).

Q: And the GI50 [15]?
A: The GI50 was 73.1 µM (inactive).

Q: And the GI50 [16]?
A: Its GI50 is > 100 µM (inactive).

Q: What about the GI50 [17] of the same compound?
A: Its GI50 is > 100 µM (inactive).

Q: And the GI50 [18]?
A: The GI50 was > 100 µM (inactive).

Q: And the GI50 [19]?
A: Its GI50 is > 100 µM (inactive).

Q: What about the GI50 [20] of the same compound?
A: The GI50 was > 100 µM (inactive).

Q: What about the GI50 [21] of the same compound?
A: The GI50 was > 100 µM (inactive).

Q: And the GI50 [22]?
A: The GI50 was > 100 µM (inactive).

Q: And the GI50 [23]?
A: The GI50 was > 100 µM (inactive).

Q: And the GI50 [24]?
A: Its GI50 is 49.7 µM (inactive).

Q: What about the GI50 [25] of the same compound?
A: Its GI50 is > 100 µM (inactive).

Q: What about the GI50 [26] of the same compound?
A: The GI50 was > 100 µM (inactive).

Q: And the GI50 [27]?
A: Its GI50 is > 100 µM (inactive).

Q: What about the GI50 [28] of the same compound?
A: The GI50 was 97.5 µM (inactive).

Q: What about the GI50 [29] of the same compound?
A: The GI50 was 74.8 µM (inactive).

Q: And the GI50 [30]?
A: Its GI50 is 98.4 µM (inactive).

Q: And the GI50 [31]?
A: The GI50 was > 100 µM (inactive).

Q: And the GI50 [32]?
A: The GI50 was > 100 µM (inactive).

Q: What about the GI50 [33] of the same compound?
A: Its GI50 is > 100 µM (inactive).

Q: What about the GI50 [34] of the same compound?
A: The GI50 was > 100 µM (inactive).

Q: And the GI50 [35]?
A: Its GI50 is 31.6 µM (inactive).

Q: What about the GI50 [36] of the same compound?
A: Its GI50 is > 100 µM (inactive).

Q: What about the GI50 [37] of the same compound?
A: The GI50 was 74.3 µM (inactive).

Q: And the GI50 [38]?
A: The GI50 was > 100 µM (inactive).

Q: What about the GI50 [39] of the same compound?
A: Its GI50 is > 100 µM (inactive).

Q: What about the GI50 [40] of the same compound?
A: Its GI50 is > 100 µM (inactive).

Q: What about the GI50 [41] of the same compound?
A: Its GI50 is > 100 µM (inactive).

Q: What about the GI50 [42] of the same compound?
A: The GI50 was > 100 µM (inactive).

Q: And the GI50 [43]?
A: The GI50 was > 100 µM (inactive).

Q: And the GI50 [44]?
A: Its GI50 is > 100 µM (inactive).

Q: And the GI50 [45]?
A: The GI50 was > 100 µM (inactive).

Q: And the GI50 [46]?
A: Its GI50 is > 100 µM (inactive).

Q: What about the GI50 [47] of the same compound?
A: The GI50 was > 100 µM (inactive).

Q: And the GI50 [48]?
A: Its GI50 is 92.5 µM (inactive).

Q: What about the GI50 [49] of the same compound?
A: Its GI50 is > 100 µM (inactive).

Q: And the GI50 [50]?
A: The GI50 was > 100 µM (inactive).

Q: What about the GI50 [51] of the same compound?
A: The GI50 was > 100 µM (inactive).

Q: And the GI50 [52]?
A: The GI50 was 72.8 µM (inactive).

Q: For `CN(C)CCCNC(=O)N/N=C/c1cccc([N+](=O)[O-])c1`, which GI50 [1] is on record?
A: Its GI50 is > 100 µM (inactive).

Q: And the GI50 [3]?
A: Its GI50 is > 100 µM (inactive).

Q: What about the GI50 [4] of the same compound?
A: The GI50 was > 100 µM (inactive).

Q: What about the GI50 [6] of the same compound?
A: The GI50 was > 100 µM (inactive).

Q: And the GI50 [8]?
A: Its GI50 is > 100 µM (inactive).

Q: And the GI50 [9]?
A: Its GI50 is > 100 µM (inactive).

Q: And the GI50 [10]?
A: Its GI50 is > 100 µM (inactive).

Q: And the GI50 [11]?
A: The GI50 was > 100 µM (inactive).

Q: What about the GI50 [12] of the same compound?
A: Its GI50 is > 100 µM.

Q: What about the GI50 [53] of the same compound?
A: Its GI50 is > 100 µM (inactive).

Q: And the GI50 [16]?
A: The GI50 was > 100 µM (inactive).

Q: What about the GI50 [17] of the same compound?
A: Its GI50 is > 100 µM (inactive).

Q: What about the GI50 [54] of the same compound?
A: Its GI50 is > 100 µM (inactive).

Q: And the GI50 [19]?
A: Its GI50 is > 100 µM (inactive).

Q: And the GI50 [20]?
A: Its GI50 is > 100 µM (inactive).

Q: And the GI50 [21]?
A: The GI50 was > 100 µM (inactive).

Q: What about the GI50 [22] of the same compound?
A: The GI50 was > 100 µM (inactive).

Q: What about the GI50 [24] of the same compound?
A: Its GI50 is > 100 µM (inactive).

Q: What about the GI50 [25] of the same compound?
A: Its GI50 is > 100 µM (inactive).

Q: And the GI50 [26]?
A: Its GI50 is > 100 µM (inactive).

Q: And the GI50 [27]?
A: Its GI50 is > 100 µM (inactive).

Q: And the GI50 [28]?
A: Its GI50 is > 100 µM (inactive).

Q: What about the GI50 [29] of the same compound?
A: Its GI50 is > 100 µM (inactive).

Q: And the GI50 [30]?
A: Its GI50 is > 100 µM (inactive).

Q: And the GI50 [31]?
A: Its GI50 is > 100 µM (inactive).

Q: What about the GI50 [33] of the same compound?
A: Its GI50 is > 100 µM (inactive).

Q: What about the GI50 [35] of the same compound?
A: The GI50 was > 100 µM (inactive).

Q: And the GI50 [36]?
A: Its GI50 is > 100 µM (inactive).

Q: And the GI50 [37]?
A: The GI50 was > 100 µM (inactive).

Q: And the GI50 [38]?
A: Its GI50 is > 100 µM (inactive).

Q: And the GI50 [39]?
A: Its GI50 is > 100 µM (inactive).

Q: And the GI50 [40]?
A: The GI50 was > 100 µM (inactive).

Q: What about the GI50 [41] of the same compound?
A: The GI50 was > 100 µM (inactive).

Q: And the GI50 [42]?
A: The GI50 was > 100 µM (inactive).

Q: What about the GI50 [43] of the same compound?
A: The GI50 was > 100 µM (inactive).

Q: And the GI50 [44]?
A: The GI50 was > 100 µM (inactive).

Q: And the GI50 [45]?
A: The GI50 was 44 µM (inactive).

Q: What about the GI50 [46] of the same compound?
A: The GI50 was > 100 µM (inactive).

Q: What about the GI50 [47] of the same compound?
A: Its GI50 is > 100 µM (inactive).

Q: What about the GI50 [48] of the same compound?
A: The GI50 was > 100 µM (inactive).

Q: What about the GI50 [49] of the same compound?
A: The GI50 was > 100 µM (inactive).

Q: And the GI50 [50]?
A: Its GI50 is > 100 µM (inactive).

Q: And the GI50 [55]?
A: The GI50 was > 100 µM (inactive).

Q: What about the GI50 [52] of the same compound?
A: The GI50 was 5.93 µM (inactive).
